Molecular target: SHP2 (Homo sapiens (Human), UniProt Q06124)
Test: SHP2 Allosteric Inhibition Assay
Assay type: biochemical
Conditions: 0.25 nM SHP2 activated with 0.5 μM bis-phosphorylated IRS1 peptide; DiFMUP substrate, prompt fluorescence

IC50 [nM] | SMILES
< 1000 | CC1(N)CCN(c2cnc3c(Oc4ccccc4)n[nH]c3n2)CC1 [Compound 20]
≥ 10000 | CC1(N)CCN(c2cnc3c(OC4CCCNC4)n[nH]c3n2)CC1 (stereo not drawn) [Compound 21]
< 1000 | CC1(N)CCN(c2cnc3c(OCc4ccccc4)n[nH]c3n2)CC1 [Compound 22]
< 1000 | Cc1cc(Oc2n[nH]c3nc(N4CCC(C)(N)CC4)cnc23)ccn1 [Compound 23]
< 1000 | Cc1cnccc1Oc1n[nH]c2nc(N3CCC(C)(N)CC3)cnc12 [Compound 24]
1000 to 10000 | CC1(N)CCN(c2cnc3c(OCc4cccnc4)n[nH]c3n2)CC1 [Compound 25]
< 1000 | CC1(N)CCN(c2cnc3c(Oc4ccccc4C#N)n[nH]c3n2)CC1 [Compound 26]
< 1000 | CC1(N)CCN(c2cnc3c(Oc4ncccc4C#N)n[nH]c3n2)CC1 [Compound 27]
< 1000 | CC(Oc1n[nH]c2nc(N3CCC(C)(N)CC3)cnc12)c1ccccc1 (stereo not drawn) [Compound 28]
< 1000 | Cc1nccc(Oc2n[nH]c3nc(N4CCC(C)(N)CC4)cnc23)c1C [Compound 29]
< 1000 | CC1(N)CCN(c2cnc3c(OCc4cccnc4N)n[nH]c3n2)CC1 [Compound 30]
< 1000 | CC1(N)CCN(c2cnc3c(Oc4ccccc4Cl)n[nH]c3n2)CC1 [Compound 31]
< 1000 | CC1(N)CCN(c2cnc3c(Oc4ccncc4Cl)n[nH]c3n2)CC1 [Compound 32]
< 1000 | CC1(N)CCN(c2cnc3c(OCc4ccccc4C#N)n[nH]c3n2)CC1 [Compound 33]
< 1000 | CC1(N)CCN(c2cnc3c(Oc4ccc(N)cc4C#N)n[nH]c3n2)CC1 [Compound 34]
1000 to 10000 | CC(=O)N1CCCC(Oc2n[nH]c3nc(N4CCC(C)(N)CC4)cnc23)C1 (stereo not drawn) [Compound 35]
< 1000 | CC1(N)CCN(c2cnc3c(Oc4ccc(N)cc4Cl)n[nH]c3n2)CC1 [Compound 36]
< 1000 | Cc1cc(Oc2n[nH]c3nc(N4CCC(C)(N)CC4)cnc23)c(Cl)cn1 [Compound 37]
< 1000 | Cc1nccc(Oc2n[nH]c3nc(N4CC[C@@H](N)C[C@@H]4C)cnc23)c1Cl [Compound 38]
< 1000 | Cc1nccc(Oc2n[nH]c3nc(N4CCC(C)(N)CC4)cnc23)c1Cl [Compound 39]
< 1000 | CC1(N)CCN(c2cnc3c(OCc4ccncc4Cl)n[nH]c3n2)CC1 [Compound 40]
< 1000 | CC1(N)CCN(c2cnc3c(Oc4cc(N)ncc4Cl)n[nH]c3n2)CC1 [Compound 42]
< 1000 | CC1(CN)CCN(c2cnc3c(Oc4ccnc(N)c4Cl)n[nH]c3n2)C1 (stereo not drawn) [Compound 43]

IC50 [nM] | SMILES
1000 to 10000 | CC1(N)CCN(c2cnc3c(Oc4cccc(C(F)F)n4)n[nH]c3n2)CC1 [Compound 44]
< 1000 | CC1(N)CCN(c2cnc3c(Oc4ccnc(O)c4Cl)n[nH]c3n2)CC1 [Compound 45]
< 1000 | CC1(N)CCN(c2cnc3c(OCc4cccc5[nH]ccc45)n[nH]c3n2)CC1 [Compound 46]
< 1000 | COc1nccc(Oc2n[nH]c3nc(N4CCC(C)(N)CC4)cnc23)c1C#N [Compound 47]
< 1000 | CC1(CN)CCN(c2cnc3c(Oc4ccnc(N)c4Cl)n[nH]c3n2)CC1 [Compound 48]
< 1000 | Cc1nccc(Oc2n[nH]c3nc(N4CCC(O)(CN)CC4)cnc23)c1Cl [Compound 49]
< 1000 | COc1nccc(Oc2n[nH]c3nc(N4CCC(C)(N)CC4)cnc23)c1Cl [Compound 50]
< 1000 | CC1(N)CCN(c2cnc3c(Oc4ccncc4C(F)(F)F)n[nH]c3n2)CC1 [Compound 51]
< 1000 | CC1(CN)CCN(c2cnc3c(Oc4ccnc(Cl)c4Cl)n[nH]c3n2)C1 (stereo not drawn) [Compound 52]
< 1000 | C[C@H]1C[C@H](N)CCN1c1cnc2c(Oc3ccnc(Cl)c3Cl)n[nH]c2n1 [Compound 53]
< 1000 | CC1(N)CCN(c2cnc3c(Oc4ccnc(Cl)c4Cl)n[nH]c3n2)CC1 [Compound 54]
< 1000 | CC1(N)CCN(c2cnc3c(Oc4ccnc(C(N)=O)c4Cl)n[nH]c3n2)CC1 [Compound 55]
< 1000 | CC1(CN)CCN(c2cnc3c(Oc4ccnc(Cl)c4Cl)n[nH]c3n2)CC1 [Compound 56]
< 1000 | NCC1(O)CCN(c2cnc3c(Oc4ccnc(Cl)c4Cl)n[nH]c3n2)CC1 [Compound 57]
1000 to 10000 | CC1(N)CCN(c2cnc3c(Oc4ccnc(NC5COC5)c4Cl)n[nH]c3n2)CC1 [Compound 58]
< 1000 | CC1(N)CCN(c2cnc3c(Oc4cc(Br)ncc4Cl)n[nH]c3n2)CC1 [Compound 59]
< 1000 | Cn1cc(-c2nccc(Oc3n[nH]c4nc(N5CCC(C)(N)CC5)cnc34)c2Cl)cn1 [Compound 60]
< 1000 | CC1(N)CCN(c2cnc3c(Oc4ccnc(-c5nccs5)c4Cl)n[nH]c3n2)CC1 [Compound 61]
< 1000 | CC1(N)CCN(c2cnc3c(Oc4ccnc(N5CCOCC5)c4Cl)n[nH]c3n2)CC1 [Compound 62]
≥ 10000 | COc1ccc(Cn2nc(Oc3ccnc(Cl)c3Cl)c3ncc(N4CC[C@@H](N)C[C@@H]4C)nc32)cc1 [Compound 63]
≥ 10000 | COc1ccc(Cn2nc(Oc3ccnc(Cl)c3Cl)c3ncc(N4CCC(O)(CN)CC4)nc32)cc1 [Compound 64]
< 1000 | CC1(N)CCN(c2cnc3c(N4CCCCc5ccccc54)n[nH]c3n2)CC1 [Compound 82]

From patent publication US11629145B2, “SHP2 phosphatase inhibitors and methods of use thereof” (Relay Therapeutics, Inc., priority 2016, dated 2023)
